Experimental data taken from patent publication US10258617B2, “Dosing regimens for fast onset of antidepressant effect” (H. Lundbeck A/S, priority 2016, dated 2019).
Read-outs that look alike come from different tables or passages of the source.

Columns and labels:
[1] = cited from earlier work
5-HT1B receptor = molecular target: T1, 5-HT1B receptor (Macaca mulatta, UniProt F6SFA9); assay: Example 1 PET monkey study: change in [11C]AZ10419369-5-HT1B receptor binding potential (BPND); format: in vivo, rhesus monkeys; conditions: rhesus monkey, iv, mean±standard error, n=3, read-out: ΔBPND (% of baseline); for change in vivo at 0.3 mg/kg: Vortioxetine 0.3 mg/kg IV; for change in vivo at 1 mg/kg: Vortioxetine 1.0 mg/kg IV
T1 construct: assess changes in the endogenous serotonin concentration in living rhesus monkeys; from tissue; host or cells: brain of living rhesus monkeys (PET)
T1 sequence (F6SFA9 1-390): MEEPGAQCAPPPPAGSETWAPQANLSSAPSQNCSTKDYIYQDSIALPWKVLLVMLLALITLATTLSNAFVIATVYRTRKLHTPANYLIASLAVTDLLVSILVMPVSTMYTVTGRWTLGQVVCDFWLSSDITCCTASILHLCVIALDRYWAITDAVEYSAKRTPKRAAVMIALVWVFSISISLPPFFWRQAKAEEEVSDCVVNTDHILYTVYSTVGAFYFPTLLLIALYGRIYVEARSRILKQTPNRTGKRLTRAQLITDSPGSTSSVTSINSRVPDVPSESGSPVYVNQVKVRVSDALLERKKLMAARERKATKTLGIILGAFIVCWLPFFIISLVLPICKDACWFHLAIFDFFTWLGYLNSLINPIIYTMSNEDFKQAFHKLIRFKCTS
From the text: (§1) Positron Emission Tomography (PET) was used to assess changes in the endogenous serotonin concentration in living rhesus monkeys. The objective of the present study was two-fold. […] The chemical name for [^11C]MADAM is [^11C] N,N-dimethyl-2-(2-amino-4-methylphenylthio)benzylamine.
(§2) FIG. 1 illustrates the study design used for assessment of serotonin releasing capacities. A similar study design was applied for assessment of SERT occupancy.

depression = conditions: FDA label of July 2014; oral treatment; cited from earlier work
[2] = molecular target: T2, serotonin transporter (SERT) (Macaca mulatta, UniProt Q9MYX0); assay: Example 1 PET monkey study: SERT occupancy with [11C]MADAM; format: in vivo, rhesus monkeys; conditions: rhesus monkey, iv, monkey brain
T2 construct: serotonin transporter occupancy in the monkey brain using the SERT radio-ligand; from tissue; host or cells: brain of living rhesus monkeys (PET)
T2 sequence (Q9MYX0 whole entry): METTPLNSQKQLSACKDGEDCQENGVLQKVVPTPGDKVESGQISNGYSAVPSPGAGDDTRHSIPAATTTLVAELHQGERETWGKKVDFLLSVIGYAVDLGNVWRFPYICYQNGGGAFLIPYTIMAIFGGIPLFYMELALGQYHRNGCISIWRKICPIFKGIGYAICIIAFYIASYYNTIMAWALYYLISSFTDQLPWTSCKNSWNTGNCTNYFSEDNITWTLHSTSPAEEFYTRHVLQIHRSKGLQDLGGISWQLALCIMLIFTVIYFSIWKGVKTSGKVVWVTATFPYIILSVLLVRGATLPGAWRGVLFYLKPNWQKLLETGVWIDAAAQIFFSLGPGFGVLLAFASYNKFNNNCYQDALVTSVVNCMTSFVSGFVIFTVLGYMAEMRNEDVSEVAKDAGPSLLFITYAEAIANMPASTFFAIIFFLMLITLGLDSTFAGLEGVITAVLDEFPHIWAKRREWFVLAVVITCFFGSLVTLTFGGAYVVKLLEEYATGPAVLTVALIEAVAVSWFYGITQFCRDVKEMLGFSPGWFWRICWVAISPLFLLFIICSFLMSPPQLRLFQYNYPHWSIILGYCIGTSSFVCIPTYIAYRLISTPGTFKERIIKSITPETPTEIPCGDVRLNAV
From the text: as §1, §2

## Cc1ccc(Sc2ccccc2N2CCNCC2)c(C)c1 [Vortioxetine, 1-[2-(2,4-dimethyl-phenylsulfanyl)-phenyl]piperazine]
[1]; once daily oral 5 mg
  steady-state plasma level (median AUC0-24): 161 ng·h/mL
[1]; once daily oral 10 mg
  steady-state plasma level (median AUC0-24): 323 ng·h/mL
[1]; once daily oral 15 mg
  steady-state plasma level (median AUC0-24): 484 ng·h/mL
[1]; once daily oral 20 mg
  steady-state plasma level (median AUC0-24): 645 ng·h/mL
[1]; once daily oral administration
  time until steady-state plasma concentration is achieved: approximately 8 days
5-HT1B receptor; Amygdala
  change in vivo at 0.3 mg/kg: -12.4 ± 10.5%
  change in vivo at 1 mg/kg: -39.5 ± 11.5%
5-HT1B receptor; Caudate nucleus
  change in vivo at 0.3 mg/kg: -23.2 ± 7.4%
  change in vivo at 1 mg/kg: -47 ± 8%
5-HT1B receptor; Dorsal raphe nucleus
  change in vivo at 0.3 mg/kg: -28.3 ± 13.6%
  change in vivo at 1 mg/kg: -55 ± 3.3%
5-HT1B receptor; Frontal gyrus
  change in vivo at 0.3 mg/kg: -8.2 ± 8.2%
  change in vivo at 1 mg/kg: -32.8 ± 9.5%
5-HT1B receptor; Globus pallidus
  change in vivo at 0.3 mg/kg: -16.3 ± 5.1%
  change in vivo at 1 mg/kg: -41.2 ± 6.4%
5-HT1B receptor; Hippocampus
  change in vivo at 0.3 mg/kg: -9.4 ± 8.9%
  change in vivo at 1 mg/kg: -27 ± 6.8%
5-HT1B receptor; Midbrain
  change in vivo at 0.3 mg/kg: -21.9 ± 3%
  change in vivo at 1 mg/kg: -49.4 ± 7.1%
5-HT1B receptor; Occipital gyrup
  change in vivo at 0.3 mg/kg: -24.3 ± 3.2%
  change in vivo at 1 mg/kg: -54.1 ± 4.2%
5-HT1B receptor; Putamen
  change in vivo at 0.3 mg/kg: -15.6 ± 8.5%
  change in vivo at 1 mg/kg: -40.8 ± 7.9%
5-HT1B receptor; Thalamus
  change in vivo at 0.3 mg/kg: -23.9 ± 5%
  change in vivo at 1 mg/kg: -42.5 ± 7%
5-HT1B receptor; Ventral striatum
  change in vivo at 0.3 mg/kg: -25.6 ± 5.4%
  change in vivo at 1 mg/kg: -47.7 ± 8.5%
depression
  effect of vortioxetine is observed starting at week: 2 week
  full antidepressant effect not seen until week: ≥ 4 week
[2]; vortioxetine 0.3 mg/kg intravenously
  receptor occupancy at 0.3 mg/kg: ~50%
[2]; vortioxetine 1.0 mg/kg intravenously
  receptor occupancy at 1 mg/kg: ~80%
